Assay results taken from publication PMC9050674, “Structure-based inhibitor design for reshaping bacterial morphology” (Communications Biology, 2022).
“And” between values parts separate entries of the source, which are not always exact repeats. Equal entries are not always repeated.

Columns and labels:
C. jejuni (ATCC 33560) = assay: Drug accumulation assay (LC-MS)
Description: The accumulation assay was adapted from two different methods[42],[43]. […] The culture was grown overnight at 42 °C under the micro-aerobic condition. The cells were harvested at 6000 g for 15 min and washed with 1 × PBS, followed by resuspension in pre-warmed 1 × PBS to ~10^10 CFU/mL. The cell suspension (1.2 mL) was dispensed into a 24-well plate. Each compound to be examined was added into each well (final concentration = 100 μM). […] After incubation with shaking at 37 °C for 20 min, OD600 of each sample was measured, and the cells were harvested at 6000 g for 10 min at 4 °C. The pellets were resuspended in 250 μL of water, followed by three cycles of Freeze-Thaw with a dry ice/ethanol bath and a 37 °C-heating block in order to extract the compounds from C. jejuni. The cells were pelleted at 13,000 g for 5 min at room temperature. The supernatants (220 μL) were transferred to new tubes. The pellets were resuspended in 100 μL of methanol with vigorous vortexing for 1 min, followed by pelleting as before. The supernatants (100 μL) were combined with the solutions previously collected. The residual cell debris were removed at 20,000 g for 15 min at room temperature. The supernatants (300 μL) were dried with Genevac™ miVac Centrifugal Concentrator at room temperature for 5 h. Finally, the samples were resuspended with appropriate solvents and analyzed by LC-MS.
The suspension was centrifuged and the supernatant was analyzed by LC-MS. LC-MS systems consists of a Bruker impact II ultra-high resolution Qq-time-of-flight mass spectrometer using Hystar 5.0 SR1 software with a Waters Acquity UPLC H-Class system equipped with a quaternary solvent manager, a sample manager-FTN, and a photodiode array detector. The Bruker electrospray ionization source was operated in the positive ion mode, except for BMK-S301 (in the negative ion mode). […] A four-step 10-min LC gradient was as follows: 3 min at 98:2; 3 min to 85:15; 0.1 min to 98:2; 3.9 min at 98:2 for BMK-S101, -S203, and -S301. The ratio of the mobile phases (A = 0.1% formic acid in water, B = 0.1% formic acid in ACN) is given as A:B in LC gradients. […] The quantification was done by integrating the peak areas from extracted-ion chromatograms of corresponding m/z values of each compound.

C. jejuni ATCC 33560 WT = assay: Cell morphology change monitored by TEM; assay type: cell-based, Campylobacter jejuni; conditions: 37 °C, 24 h, KL-L9P used for improved permeability
Text: Next, we investigated whether our inhibitors could transform C. jejuni from the helical- to curved-rod morphology on exposure to the inhibitors (Fig. 5). […] To investigate the effect of inhibitors on the morphology of C. jejuni cells, we exposed the cells to the inhibitors and checked whether the morphology could be altered.
Cell-morphology change of C. jejuni upon inhibitor treatment was monitored, as described previously with modifications. Briefly, overnight cultures of C. jejuni were harvested from MH agar plates and suspended in MH broth to approximately 1 × 10^6 colony-forming unit (CFU)/mL. A total of 500 μL of the diluted bacterial culture was added into each well of a 24-well plate with 5 μL of two-fold serial dilutions of inhibitor. For the control strain with no inhibitor, the same volume of dilution buffer (20 mM Tris-HCl pH 8.0 and 200 mM NaCl) was used. The plate was incubated under a micro-aerobic condition at 37 °C for 24 h in the static condition. After incubation, 10 μL of the bacterial cultures was placed on formvar/carbon-coated copper grids (200 mesh) and negatively stained with 2% uranyl acetate for 2 s.

With `CC(=O)N[C@@H](Cc1ccc(S(N)(=O)=O)cc1)C(=O)N[C@H](C)C(=O)NO` [BMK-S301] as the molecule, how does the “accumulation fold higher than for BMK-S203” value (C. jejuni (ATCC 33560); 100 μM compound) read?
Its value is 54 fold.

And the “accumulation fold higher than for ciprofloxacin” value (C. jejuni (ATCC 33560); 100 μM compound)?
The value was 8 fold.

And the “intracellular concentration (accumulation)” value (C. jejuni (ATCC 33560); 100 μM compound, 37 °C, 20 min, LC-MS, mean)?
The value was 16.2 ± 1.0 nmole/10^11 CFU.

And the “µM (concentration in LC-MS sample)” value (C. jejuni (ATCC 33560); single replicates (First, Second, Third), total volume 200 (r6-r19) or 100 (r23-r30), source data Fig. 5b)?
Its value is 0.766 µM and 0.686 µM and 1.447 µM and 1.359 µM and 1.398 µM and 0.649 µM.

What about the “nmol/1011 CFUs” value (C. jejuni (ATCC 33560); single replicates, source data Fig. 5b) of the same molecule?
The value was 17.92 nmol/1011 CFUs and 16.41 nmol/1011 CFUs and 16.422 nmol/1011 CFUs and 15.620 nmol/1011 CFUs and 15.458 nmol/1011 CFUs and 15.07 nmol/1011 CFUs.

And the Total nmol (C. jejuni (ATCC 33560); single replicates, total volume 200 or 100, source data Fig. 5b)?
Its Total nmol is 0.1532 nmol and 0.1372 nmol and 0.1447 nmol and 0.1359 nmol and 0.1398 nmol and 0.1298 nmol.

What about the “minimum concentration causing morphological changes (helical to curved-rod)” value (C. jejuni ATCC 33560 WT) of the same molecule?
Its value is 25 μM.
